Laboratory results as given in PubChem BioAssay (NCI).
Several values for one entry are separate records, joined by “and”; a condition that tells them apart may be missing. Equal values may be shown once.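 Dose response: 5 concentrations. Exposure: 48 h. Format: 96-well plates. Endpoint: linear interpolation; highest concentration if not reached. GI50 = concentration required for 50% inhibition of growth. TGI marks complete inhibition of growth.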

Columns and labels:
Test in all cases: NCI tumour cell line growth inhibition, 48 h
MALME-3M melanoma = system: MALME-3M melanoma
CCRF-CEM leukemia = system: CCRF-CEM leukemia
DU-145 prostate = system: DU-145 prostate
K-562 leukemia = system: K-562 leukemia
A549 NSCLC = system: A549 NSCLC
HCC-2998 colon = system: HCC-2998 colon
UO-31 renal = system: UO-31 renal
HOP-62 NSCLC = system: HOP-62 NSCLC
SN12K1 renal = system: SN12K1 renal
MCF7 breast = system: MCF7 breast
NCI-H226 lung = system: NCI-H226 lung
IGROV1 ovarian = system: IGROV1 ovarian
786-0 renal = system: 786-0 renal
KM12 colon = system: KM12 colon
CAKI-1 renal = system: CAKI-1 renal
MOLT-4 leukemia = system: MOLT-4 leukemia
SR leukemia = system: SR leukemia
DMS 273 small cell lung = system: DMS 273 small cell lung
COLO 205 colon = system: COLO 205 colon
SF-268 CNS = system: SF-268 CNS
HCT-116 colon = system: HCT-116 colon
SF-295 CNS = system: SF-295 CNS
LOX IMVI melanoma = system: LOX IMVI melanoma
A498 renal = system: A498 renal
NCI-H460 lung = system: NCI-H460 lung
NCI-H23 lung = system: NCI-H23 lung
MDA-MB-435 = system: MDA-MB-435
EKVX NSCLC = system: EKVX NSCLC
SW-620 colon = system: SW-620 colon
SK-OV-3 ovarian = system: SK-OV-3 ovarian
SNB-19 CNS = system: SNB-19 CNS
DLD-1 colon = system: DLD-1 colon
SF-539 CNS = system: SF-539 CNS
SK-MEL-5 melanoma = system: SK-MEL-5 melanoma
NCI-H522 lung = system: NCI-H522 lung
P388/ADR leukemia = system: P388/ADR leukemia
HOP-18 NSCLC = system: HOP-18 NSCLC
M14 melanoma = system: M14 melanoma
PC-3 prostate = system: PC-3 prostate
SNB-75 CNS = system: SNB-75 CNS
SK-MEL-2 melanoma = system: SK-MEL-2 melanoma
MDA-MB-231 breast = system: MDA-MB-231 breast
SNB-78 CNS = system: SNB-78 CNS
TK-10 renal = system: TK-10 renal
DMS 114 small cell lung = system: DMS 114 small cell lung
RPMI-8226 leukemia = system: RPMI-8226 leukemia
HT29 colon = system: HT29 colon
MDA-N = system: MDA-N
HOP-92 NSCLC = system: HOP-92 NSCLC
M19-MEL melanoma = system: M19-MEL melanoma
U251 CNS = system: U251 CNS
SN12C renal = system: SN12C renal
ACHN renal = system: ACHN renal
XF 498 CNS = system: XF 498 CNS
RXF 393 renal = system: RXF 393 renal
P388 leukemia = system: P388 leukemia
KM20L2 colon = system: KM20L2 colon
BT-549 breast = system: BT-549 breast
UACC-62 melanoma = system: UACC-62 melanoma
SK-MEL-28 melanoma = system: SK-MEL-28 melanoma
HCT-15 colon = system: HCT-15 colon
OVCAR-4 ovarian = system: OVCAR-4 ovarian
UACC-257 melanoma = system: UACC-257 melanoma
NCI/ADR-RES ovarian = system: NCI/ADR-RES ovarian
OVCAR-5 ovarian = system: OVCAR-5 ovarian
T-47D breast = system: T-47D breast
HL-60(TB) leukemia = system: HL-60(TB) leukemia

In the case of `CCCCCCCCCCS(=O)CC(CO)NC(=O)/C=C/c1c(C)[nH]c(=O)[nH]c1=O` (stereo not given), the GI50 (MALME-3M melanoma) is reported as 23.9 µM, the GI50 (CCRF-CEM leukemia) is reported as 4.08 µM and the TGI (CCRF-CEM leukemia) is reported as 2.41 µM and 13.2 µM. For the same compound, the TGI (DU-145 prostate) was > 100 µM, the GI50 (K-562 leukemia) was 26.4 µM and the GI50 (A549 NSCLC) was 14.2 µM. For the same compound, the TGI (A549 NSCLC) was 35.3 µM and 31.8 µM, the GI50 (HCC-2998 colon) was 3.26 µM and the TGI (HCC-2998 colon) was 1.9 µM and 17.5 µM. The GI50 (UO-31 renal) was 17.2 µM, the TGI (UO-31 renal) was 8.68 µM and 33.8 µM and the GI50 (HOP-62 NSCLC) was 4.8 µM. For the same compound, the TGI (HOP-62 NSCLC) was 6.49 µM and 18.4 µM, the TGI (SN12K1 renal) was 3.9 µM and the GI50 (MCF7 breast) was 23.4 µM. The TGI (NCI-H226 lung) was 4.21 µM, the GI50 (IGROV1 ovarian) was 2.77 µM and the TGI (IGROV1 ovarian) was 13.5 µM and 8.81 µM. The TGI (786-0 renal) was 27 µM, the TGI (KM12 colon) was 3.27 µM and the TGI (CAKI-1 renal) was 4.2 µM and 31.1 µM. The GI50 (MOLT-4 leukemia) was 8.74 µM, the TGI (MOLT-4 leukemia) was 4.68 µM and 45.5 µM and the TGI (SR leukemia) was > 100 µM. It also gave a TGI (DMS 273 small cell lung) of 4.04 µM, a GI50 (COLO 205 colon) of 2.96 µM and a TGI (SF-268 CNS) of 2.01 µM. For the same compound, the TGI (HCT-116 colon) was 5.61 µM and 31.9 µM, the GI50 (SF-295 CNS) was 1.15 µM and 7.04 µM and the TGI (SF-295 CNS) was 8.88 µM and 22.8 µM. For the same compound, the GI50 (LOX IMVI melanoma) was 13.5 µM, the TGI (LOX IMVI melanoma) was 10.2 µM and 27.1 µM and the GI50 (A498 renal) was 23.4 µM. For the same compound, the TGI (A498 renal) was 7.98 µM and 62.1 µM, the TGI (NCI-H460 lung) was 1.97 µM and 15.3 µM and the GI50 (NCI-H23 lung) was 29.5 µM. For the same compound, the TGI (MDA-MB-435) was 49.1 µM, the GI50 (EKVX NSCLC) was 28.3 µM and the GI50 (SW-620 colon) was 15.7 µM. The GI50 (SK-OV-3 ovarian) was 11 µM, the TGI (SK-OV-3 ovarian) was 12.7 µM and 32.1 µM and the TGI (SNB-19 CNS) was 2.64 µM and 25.7 µM. It also gave a TGI (DLD-1 colon) of 5.28 µM, a GI50 (SF-539 CNS) of 14.9 µM and a GI50 (SK-MEL-5 melanoma) of 18.2 µM. For the same compound, the TGI (SK-MEL-5 melanoma) was 4.52 µM and 40.4 µM, the GI50 (NCI-H522 lung) was 10.6 µM and the TGI (P388/ADR leukemia) was 24.5 µM. It also gave a TGI (HOP-18 NSCLC) of 16.2 µM, a TGI (M14 melanoma) of 24.4 µM and a TGI (PC-3 prostate) of 7.79 µM. For the same compound, the TGI (SNB-75 CNS) was 1.76 µM, the GI50 (SK-MEL-2 melanoma) was 25.8 µM and the TGI (MDA-MB-231 breast) was 15.9 µM. It also gave a TGI (SNB-78 CNS) of 5.65 µM, a TGI (TK-10 renal) of 4.02 µM and a TGI (DMS 114 small cell lung) of 1.42 µM. For the same compound, the GI50 (RPMI-8226 leukemia) was 10.6 µM, the GI50 (HT29 colon) was 6.27 µM and the TGI (HT29 colon) was 22.7 µM and 19.9 µM. For the same compound, the TGI (MDA-N) was 57.5 µM, the GI50 (HOP-92 NSCLC) was 10.5 µM and the TGI (M19-MEL melanoma) was 4.3 µM. It also gave a GI50 (U251 CNS) of 17.4 µM, a GI50 (SN12C renal) of 10.3 µM and a TGI (ACHN renal) of 28.5 µM. For the same compound, the TGI (XF 498 CNS) was 0.229 µM, the GI50 (RXF 393 renal) was 10 µM and the TGI (P388 leukemia) was 1.62 µM. It also gave a TGI (KM20L2 colon) of 6 µM, a TGI (BT-549 breast) of 25.1 µM and a GI50 (UACC-62 melanoma) of 9.8 µM. The TGI (UACC-62 melanoma) was 4.08 µM and 24.5 µM, the GI50 (SK-MEL-28 melanoma) was 43.9 µM and the GI50 (HCT-15 colon) was 4.4 µM. For the same compound, the TGI (HCT-15 colon) was 14.8 µM and 21.5 µM, the TGI (OVCAR-4 ovarian) was 1.88 µM and the GI50 (UACC-257 melanoma) was 20.4 µM. The TGI (UACC-257 melanoma) was 9.58 µM and 43.7 µM, the GI50 (NCI/ADR-RES ovarian) was 17.2 µM and the TGI (NCI/ADR-RES ovarian) was 37.9 µM and 34.2 µM. The GI50 (OVCAR-5 ovarian) was 2.86 µM, the TGI (OVCAR-5 ovarian) was 11.6 µM and 10.2 µM and the TGI (T-47D breast) was 39.6 µM. It also gave a TGI (HL-60(TB) leukemia) of 4.16 µM.
